Experimental data as given in patent US8962558B2, “Methods for reducing GnRH-positive tumor cell proliferation using the GnRH antagonist IN3” (priority 1997, dated 2015).
Square brackets hold non-standard residues; d marks the D form. Peptide text beside a SMILES is read from it. * marks the point of attachment. dPhe(4-NHCONH2) = NC(=O)Nc1ccc(C[C@@H](N)C(=O)O)cc1; Dihydroorotyl(S) = O=C1C[C@@H](C(=O)*)NC(=O)N1; d(hArg(Et2)) = CCN=C(NCC)NCCCC[C@@H](N)C(=O)O; dPhe(4-NH2) = Nc1ccc(C[C@@H](N)C(=O)O)cc1; hArg(Et2) = CCN=C(NCC)NCCCC[C@H](N)C(=O)O; dPhe(4-Cl) = N[C@H](Cc1ccc(Cl)cc1)C(=O)O; Phe(4-NH2) = Nc1ccc(C[C@H](N)C(=O)O)cc1; d2Nal = N[C@H](Cc1ccc2ccccc2c1)C(=O)O; Lys(iPr) = CC(C)NCCCC[C@H](N)C(=O)O; d3Pal = N[C@H](Cc1cccnc1)C(=O)O

Legend:
[1] = tested on: human glioblastoma cell lines U-87MG or U-373MG, Kaposi sarcoma cell lines KSY-1 or KS-SLK, malignant melanoma cell line MV3 or BLM, medulloblastoma cell line …; test: Proliferation assay on cell cultures (Example 3); assay type: cell-based; settings: for anti-proliferative effects in tumor cells: cell lines of Example 3 treated with the substance; for anti-proliferative effect compared with Cetrorelix only: given additionally as a second GnRH antagonist
Method: A human cell line, such as the well known human glioblastoma cell lines U-87MG or U-373MG (Pinski et al., supra), or a human cell line such as the well known Kaposi sarcoma cell lines KSY-1 or KS-SLK (Parkash et al., 1996, New England Journal of Medicine, 335, 17, 1261-1269), or a human cell line such as the well known human malignant melanoma cell line MV3 or BLM (Goldbrunner, R. H., et al., 1996, Anticancer Research 16 (6B), 3679-87), or a human medulloblastoma cell line such as the well known cell line Daoy or D283 MED (Stockhammer et al., 1995, J. Neurosurgery, 83, 672-681), or human meningeoma cell cultures (Boyle-Wash, E., et al., 1995, Journal of Endocrinology, 145, 155-161), are cultured as previously described for the above-mentioned cell lines and then treated with a concentration of the GnRH agonist Triptorelin®, GnRH antagonist SB-75 (Cetrorelix®) or GnRH antagonist Ramorelix®. […]
In another embodiment, the above-mentioned cell lines are treated as described by Emons, G., et al., 1993, supra, and Irmer, G., 1995, supra, with a concentration of the GnRH peptide antagonist Ac-D-Nal(2)-D-4-ClPhe-D-Pal-Ser-1-MePal-D-IsopropylLys-Leu-IsopropylLys-Pro-D-AlaNH2 (also known as Ant 135-25; the Mepal portion is known as 1-Methyl-3-[3′-pyridyl]-alanine), Teverelix (also known as Antarelix®), Cetrorelix (also known as Cetrotide®), Abarelix (also known as Plenaxis®), D-63153 (also known as Ozarelix®), acyline, azaline B, antide (also known as Iturelix®), Degarelix (FE200486), Ganirelix, Nal-Glu, Orntide (also known as Ornirelix®), Elagolix, or with antagonist peptidomimetic ((2S)-2-[5-[2-(2-azabicyclo[2,2,2]oct-2-yl)-1,1-dimethyl-2-oxoethyl]-2-(3,5-dimethylphenyl)-1H-indol-3-yl]-N-(2-pyridin-4-ylethyl-)propan-1-amine (also known as “IN3”).
In another embodiment, the cell lines used above were each additionally treated with a second GnRH antagonist, namely one of the GnRH antagonists Cetrorelix®, Ant 135-25, IN3, degarelix, Antarelix®, Antide®, and Ramorelix® or alternatively with one of the GnRH antagonists that have been disclosed in U.S. Pat. Nos. 6,939,88, 6,200,957, 5,296,468, 4,851,385, 7,361,633, 7,288,517, WO/2009/106597 or PCT/EP2009/052326, U.S. Pat. Nos. 5,480,969, 5,198,533, or UK Patent GB 2 246782 B, wherein these additional treatment procedures were carried out in a manner similar to those reported in Emons et al., supra, using SB 75 (Cetrorelix®). […]

[2] = tested on: small cell lung carcinoma cell lines NCI-H1688, NCI-H1417, NCI-H1672, NCI-H1836, DMS-79, DM-553, DMS-114, SW-1271, NCI-H2227, NCI-HI1963, SHP-77 and H-69 AR; test: Proliferation assay on small cell lung carcinoma cell lines (Example 3); assay type: cell-based, human; settings: small cell lung carcinoma cell lines treated with the substance
Method: In another embodiment, the small cell lung carcinoma cell lines NCI-H1688, NCI-H1417, NCI-H1672, NCI-H1836, DMS-79, DM-553, DMS-114, SW-1271, NCI-H2227, NCI-HI1963 and SHP-77 in addition to the multidrug-resistant small cell lung carcinoma cell line H-69 AR, are cultured as described above and then treated as described by Emons, G., et al., 1993, supra, and Irmer, G., 1995, supra, with various concentrations of the GnRH agonists (D-Lys6)-GnRH, Lutrelin, Histrelin, Nafarelin, Azagly-Nafarelin, Deslorelin, Cystorelin, Decapeptyl, Gonadorelin, GnRH, D-Lys(6)-GnRH II, Lamprey GnRH II, (D-Lys6)-Lamprey GnRH, (D-Lys6)-Lamprey GnRH II and Lamprey GnRH III.
In another embodiment, the small cell lung carcinoma cell lines NCI-H1688, NCI-H1417, NCI-H1672, NCI-H1836, DMS-79, DM-553, DMS-114, SW-1271, NCI-H2227, NCI-HI1963 and SHP-77 in addition to the multidrug-resistant small cell lung carcinoma cell line H-69 AR, are cultured as described above for the above-mentioned cell lines, and then treated as described by Emons, G., et al., 1993, supra, and Irmer, G., 1995, supra, with a concentration of the GnRH antagonist Cetrorelix (also known as Cetrotide®) or with a GnRH peptide antagonist Ac-D-Nal(2)-D-4-ClPhe-D-Pal-Ser-1-MePal-D-IsopropylLys-Leu-IsopropylLys-Pro-D-AlaNH2 wherein Mepal is 1-Methyl-3-[3′-pyridyl]-alanine or Ant 135-25 (also known as Ac-D-Nal(2)-D-4-Cl-Phe-D-Pal-Ser-1-MePal-D-IsopropylLys-Leu-IsopropylLys-Pro-D-AlaNH2), Teverelix (also known as Antarelix®), Cetrorelix (also known as Cetrotide®), Abarelix (also known as Plenaxis®), D-63153 (also known as Ozarelix®), acyline, azaline B, antide (also known as Iturelix®), Degarelix (FE200486), Ganirelix, Nal-Glu, Orntide (also known as Ornirelix®) or with antagonist peptidomimetic ((2S)-2-[5-[2-(2-azabicyclo[2,2,2]oct-2-yl)-1,1-dimethyl-2-oxoethyl]-2-(3,5-dimethylphenyl)-1H-indol-3-yl]-N-(2-pyridin-4-ylethyl-)propan-1-amine (also known as “IN3”).

| Compound | anti-proliferative effects in tumor cells [1] | anti-proliferative effects in tumor cells [2] | anti-proliferative effect compared with Cetrorelix only [1] |
| --- | --- | --- | --- |
| CCNC(=O)[C@@H]1CCCN1C(=O)[C@H](CCCNC(=N)N)NC(=O)[C@H](CC(C)C)NC(=O)[C@@H](Cc1cn(Cc2ccccc2)cn1)NC(=O)[C@H](Cc1ccc(O)cc1)NC(=O)[C@H](CO)NC(=O)[C@H](Cc1c[nH]c2ccccc12)NC(=O)[C@H](Cc1cnc[nH]1)NC(=O)[C@@H]1CCC(=O)N1 [Histrelin] | Significant anti-proliferative effects | Significant anti-proliferative effects | – |
| COc1cccc(-c2c(C)n(Cc3c(F)cccc3C(F)(F)F)c(=O)n(C[C@H](NCCCC(=O)O)c3ccccc3)c2=O)c1F [Elagolix, 4-[[(1R)-2-[5-(2-Fluoro-3-methoxyphenyl)-3-[[2-fluoro-6(trifluoromethyl)phenyl]methyl]-3,6-dihydro-4-methyl-2,6-dioxo-1(2H)-pyrimidinyl]-1-phenylethyl]amino]butanoic acid] | Significant anti-proliferative effects | – | – |
| CCNC(=O)[C@@H]1CCCN1C(=O)[C@H](CCCN=C(N)N)NC(=O)[C@H](CC(C)C)N(C)C(=O)[C@@H](Cc1c[nH]c2ccccc12)NC(=O)[C@H](Cc1ccc(O)cc1)NC(=O)[C@H](CO)NC(=O)[C@H](Cc1c[nH]c2ccccc12)NC(=O)[C@H](Cc1cnc[nH]1)NC(=O)[C@@H]1CCC(=O)N1 [Lutrelin] | Significant anti-proliferative effects | Significant anti-proliferative effects | – |
| CCNC(=O)[C@@H]1CCCN1C(=O)[C@H](CCCN=C(N)N)NC(=O)[C@H](CC(C)C)NC(=O)[C@@H](Cc1c[nH]c2ccccc12)NC(=O)[C@H](Cc1ccc(O)cc1)NC(=O)[C@H](CO)NC(=O)[C@H](Cc1c[nH]c2ccccc12)NC(=O)[C@H](Cc1cnc[nH]1)NC(=O)[C@@H]1CCC(=O)N1 [Deslorelin] | Significant anti-proliferative effects | Significant anti-proliferative effects | – |
| CC(C)C[C@H](NC(=O)[C@@H](Cc1c[nH]c2ccccc12)NC(=O)[C@H](Cc1ccc(O)cc1)NC(=O)[C@H](CO)NC(=O)[C@H](Cc1c[nH]c2ccccc12)NC(=O)[C@H](Cc1c[nH]cn1)NC(=O)[C@@H]1CCC(=O)N1)C(=O)N[C@@H](CCCNC(=N)N)C(=O)N1CCC[C@H]1C(=O)NCC(N)=O [Decapeptyl] | – | Significant anti-proliferative effects | – |
| CCN=C(NCC)NCCCC[C@H](NC(=O)[C@H](CC(C)C)NC(=O)[C@@H](CCCCNC(=NCC)NCC)NC(=O)[C@H](Cc1ccc(O)cc1)NC(=O)[C@H](CO)NC(=O)[C@@H](Cc1cccnc1)NC(=O)[C@@H](Cc1ccc(Cl)cc1)NC(=O)[C@@H](Cc1ccc2ccccc2c1)NC(C)=O)C(=O)N1CCC[C@H]1C(=O)N[C@H](C)C(N)=O [Ganirelix] (Ac-[d2Nal][dPhe(4-Cl)][d3Pal]SY[d(hArg(Et2))]L[hArg(Et2)]P[dA]-NH2) | Significant anti-proliferative effects | Significant anti-proliferative effects | – |
| CC(=O)N[C@H](Cc1ccc2ccccc2c1)C(=O)N[C@H](Cc1ccc(Cl)cc1)C(=O)N[C@H](Cc1cccnc1)C(=O)N[C@@H](CO)C(=O)N[C@@H](Cc1ccc(NC(=O)[C@@H]2CC(=O)NC(=O)N2)cc1)C(=O)N[C@H](Cc1ccc(NC(N)=O)cc1)C(=O)N[C@@H](CC(C)C)C(=O)N[C@@H](CCCCNC(C)C)C(=O)N1CCC[C@H]1C(=O)N[C@H](C)C(N)=O [Degarelix] (Ac-[d2Nal][dPhe(4-Cl)][d3Pal]S[Phe(4-NH2)](Dihydroorotyl(S))[dPhe(4-NHCONH2)]L[Lys(iPr)]P[dA]-NH2) | Significant anti-proliferative effects | Significant anti-proliferative effects | significantly stronger anti-proliferative effect |
| Ac-D-Nal(2)-D-4-ClPhe-D-Pal-Ser-1-MePal-D-IsopropylLys-Leu-IsopropylLys-Pro-D-AlaNH2 [Ant 135-25] | Significant anti-proliferative effects | Significant anti-proliferative effects | significantly stronger anti-proliferative effect |
| Nal-Glu | Significant anti-proliferative effects | Significant anti-proliferative effects | – |
| Cc1cc(C)cc(-c2[nH]c3ccc(C(C)(C)C(=O)N4CC5CCC4CC5)cc3c2[C@H](C)CNCCc2ccncc2)c1 [IN3, (2S)-2-[5-[2-(2-azabicyclo[2,2,2]oct-2-yl)-1,1-dimethyl-2-oxoethyl]-2-(3,5-dimethylphenyl)-1H-indol-3-yl]-N-(2-pyridin-4-ylethyl-)propan-1-amine] | Significant anti-proliferative effects | Significant anti-proliferative effects | significantly stronger anti-proliferative effect |
| CC(C)C[C@H](NC(=O)CNC(=O)[C@H](Cc1ccc(O)cc1)NC(=O)[C@H](CO)NC(=O)[C@H](Cc1c[nH]c2ccccc12)NC(=O)[C@H](Cc1cnc[nH]1)NC(=O)[C@@H]1CCC(=O)N1)C(=O)N[C@@H](CCCNC(=N)N)C(=O)N1CCC[C@H]1C(=O)NCC(N)=O [Gonadorelin] | Significant anti-proliferative effects | Significant anti-proliferative effects | – |
| CC(=O)Nc1ccc(C[C@H](NC(=O)[C@H](CO)NC(=O)[C@@H](Cc2cccnc2)NC(=O)[C@@H](Cc2ccc(Cl)cc2)NC(=O)[C@@H](Cc2ccc3ccccc3c2)NC(C)=O)C(=O)N[C@H](Cc2ccc(NC(C)=O)cc2)C(=O)N[C@@H](CC(C)C)C(=O)N[C@@H](CCCCNC(C)C)C(=O)N2CCC[C@H]2C(=O)N[C@H](C)C(N)=O)cc1 [acyline] (Ac-[d2Nal][dPhe(4-Cl)][d3Pal]S[Phe(4-NH2)](Ac)[dPhe(4-NH2)](Ac)L[Lys(iPr)]P[dA]-NH2) | Significant anti-proliferative effects | Significant anti-proliferative effects | – |
